Assays:
Format in all cases: biochemical
MMP-1 = target: T1, MMP-1 (Homo sapiens, UniProt P03956); assay: In Vitro Collagenase Assay (MMP-1); settings: human recombinant fibroblast collagenase
T1 construct: human recombinant fibroblast collagenase (truncated, mw=18,828)
T1 sequence (P03956 100-269 limits assumed): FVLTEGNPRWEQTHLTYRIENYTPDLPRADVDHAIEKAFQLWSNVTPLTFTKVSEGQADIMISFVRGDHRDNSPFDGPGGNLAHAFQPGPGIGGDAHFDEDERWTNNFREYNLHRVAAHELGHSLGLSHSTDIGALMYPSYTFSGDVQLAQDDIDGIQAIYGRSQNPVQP
From the text: In Vitro Collagenase Assay
This assay was based on the cleavage of a peptide substrate ((Dnp-Pro-Cha-Gly-Cys(Me)-His-Ala-Lys(NMa)-NH2), available from Peptide International, Inc.) by collagenase releasing the fluorescent NMa group which was quantitated on the fluorometer as disclosed in Bickett et al., "A High Throughput Fluorogenic Substrate for Interstitial Collagenase (MMP-1) and Gelatinase (MMP-9)", Anal. Biochem., 212:58-64, (1993). Dnp quenches the NMa fluorescence in the intact substrate.
The assay was run in HCBC assay buffer (50 mM HEPES, pH 7.0, 5 mM Ca^+2, 0.02% Brij, 0.5% Cysteine), with human recombinant fibroblast collagenase (truncated, mw=18,828. from Wyeth-Ayerst Research, Radnor, Pa.). The substrate was dissolved in methanol and stored frozen in 1 mM aliquots. Collagenase was stored frozen in buffer in 25 μM aliquots. In conducting the assay, the substrate was dissolved in HCBC buffer to a final concentration of 10 μM and collagenase to a final concentration of 5 nM. The compounds being examined were dissolved in methanol, DMSO, or HCBC. The methanol and DMSO were diluted in HCBC to <1.0%. The compounds were added to a 96 well plate containing enzyme and the reaction was started by the addition of substrate.
(§1) The reaction was read (excitation 340 nm, emission 444 nm) for 10 min. and the increase in fluorescence over time was plotted as a linear line. The slope of the line was calculated representing the reaction rate. The linearity of the reaction rate was confirmed (r^2 >0.85). The mean (x±sem) of the control rate was calculated and compared for statistical significance (p<0.05) with drug-treated rates using Dunnett's multiple comparison test.

MMP-9 = MMP-9 (Homo sapiens, UniProt P14780); assay: In Vitro Gelatinase Assay (MMP-9); settings: human neutrophil gelatinase B
Chain of MMP-9 (P14780 94-707): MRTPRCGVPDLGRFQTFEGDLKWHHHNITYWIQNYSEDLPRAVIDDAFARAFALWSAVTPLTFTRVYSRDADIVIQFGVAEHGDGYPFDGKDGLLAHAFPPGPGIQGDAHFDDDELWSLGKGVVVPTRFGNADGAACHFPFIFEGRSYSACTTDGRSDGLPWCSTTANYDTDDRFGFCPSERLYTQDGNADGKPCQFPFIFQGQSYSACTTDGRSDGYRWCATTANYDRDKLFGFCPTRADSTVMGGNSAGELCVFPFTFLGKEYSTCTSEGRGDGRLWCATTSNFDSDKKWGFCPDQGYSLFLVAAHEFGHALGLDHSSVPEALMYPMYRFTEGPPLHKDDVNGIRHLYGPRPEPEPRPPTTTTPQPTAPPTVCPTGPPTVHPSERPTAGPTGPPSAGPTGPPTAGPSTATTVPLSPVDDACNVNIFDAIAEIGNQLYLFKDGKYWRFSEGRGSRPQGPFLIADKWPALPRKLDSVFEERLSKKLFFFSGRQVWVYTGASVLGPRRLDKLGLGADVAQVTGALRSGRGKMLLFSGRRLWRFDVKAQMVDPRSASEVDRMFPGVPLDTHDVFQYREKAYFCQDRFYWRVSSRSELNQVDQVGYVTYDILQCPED
Experimental: The enzyme activity is measured by the rate of the color increase. The thiopeptide substrate was made up fresh as a 20 mM stock in 100% DMSO and the DTNB was dissolved in 100% DMSO as a 100 mM stock and stored in the dark at room temperature. The substrate and the DTNB were diluted together to 1 mM with substrate buffer (50 mM HEPES, pH 7.5, 5 mM CaCl2) before use. […] The assay buffer, enzyme. […] The increase in OD405 was plotted and the slope of the line was calculated. The slope represents the reaction rate.

MMP-13 = MMP-13 (Homo sapiens, UniProt P45452); assay: MMP-13 inhibition (Table 1); settings: read-out: IC50 (nM) MMP-13
TACE = target: T2, TACE (Homo sapiens, UniProt P78536); assay: Procedure for Measuring TACE Inhibition
T2 construct: purchased Immunex
T2 sequence (P78536 215-824): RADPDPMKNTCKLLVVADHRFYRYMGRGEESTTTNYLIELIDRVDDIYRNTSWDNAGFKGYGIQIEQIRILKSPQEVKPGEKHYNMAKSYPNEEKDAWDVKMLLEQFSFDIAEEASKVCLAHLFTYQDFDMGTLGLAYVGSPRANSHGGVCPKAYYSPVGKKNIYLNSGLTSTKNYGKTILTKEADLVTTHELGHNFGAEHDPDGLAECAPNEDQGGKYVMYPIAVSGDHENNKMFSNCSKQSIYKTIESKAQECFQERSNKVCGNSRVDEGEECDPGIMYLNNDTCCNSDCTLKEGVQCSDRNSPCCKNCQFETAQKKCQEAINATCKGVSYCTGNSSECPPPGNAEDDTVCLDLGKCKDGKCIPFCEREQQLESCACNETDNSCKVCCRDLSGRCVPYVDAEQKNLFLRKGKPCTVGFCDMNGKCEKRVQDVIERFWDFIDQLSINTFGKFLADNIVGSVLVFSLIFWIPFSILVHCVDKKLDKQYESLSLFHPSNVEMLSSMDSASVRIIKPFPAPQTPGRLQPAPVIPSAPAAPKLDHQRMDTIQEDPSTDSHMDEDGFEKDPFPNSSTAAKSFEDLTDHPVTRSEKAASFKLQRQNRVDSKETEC
Experimental: Procedure for Measuring TACE Inhibition
The plates were incubated for 10 minutes at room temperature. The reaction was initiated by addition of a fluorescent peptidyl substrate (final concentration 100 μM) to each well with shaking on a shaker for 5 sec.
as §1, with “420” for “444”, “and this represents” for “representing”, “The linearity of the reaction rate was confirmed (r^2 >0.85).” left out

SMILES | IC50 (MMP-1) [nM] | IC50 (MMP-9) [nM] | IC50 (MMP-13) [nM] | IC50 (TACE) [nM]
COc1ccc(S(=O)(=O)N2Cc3ccccc3N(C(C)=O)CC2C(=O)NO)cc1 (centres unmarked) [Example 6, 1-Acetyl-4-(4-methoxybenzenesulfonyl)-2,3,4,5-tetrahydro-1H-[1,4]benzodiazepine-3-carboxylic acid, Hydroxyamide] | 18.4 | 1.4 | 1 | 103
COc1ccc(S(=O)(=O)N2Cc3ccccc3N(C(=O)c3cc(F)ccc3C)CC2C(=O)NO)cc1 (centres unmarked) [Example 11, 4-(4-Methoxybenzenesulfonyl)-1-(2-methyl-5-fluorobenzoyl)-2,3,4,5-tetrahydro-1H-[1,4]benzodiazepine-3-carboxylic acid, Hydroxyamide] | 55.4 | 3.9 | 2.3 | 271
COCC(=O)N1CC(C(=O)NO)N(S(=O)(=O)c2ccc(OC)cc2)Cc2cc(C)ccc21 (centres unmarked) [Example 59, 1-Methoxyacetyl-4-(4-methoxybenzenesulfonyl)-7-methyl-2,3-4,5-tetrahydro-1H-[1,4]benzodiazepine-3-carboxylic acid, hydroxyamine] | 105 | 2.6 | 1.8 | 125 ± 6
COc1ccc(S(=O)(=O)N2Cc3ccccc3N(C(=O)c3ccncc3)CC2C(=O)NO)cc1 (centres unmarked) [Example 13, 4-(4-Methoxybenzenesulfonyl)-1-(4-pyridinylcarbonyl)-2,3,4,5-tetrahydro-1H-[1,4]benzodiazepine-3-carboxylic acid, Hydroxyamide] | 54.9 | 9.8 | 2 | 154
COc1ccc(S(=O)(=O)N2Cc3ccccc3N(C(=O)c3cccnc3)CC2C(=O)NO)cc1 (centres unmarked) [Example 7, 4-(4-Methoxybenzenesulfonyl)-1-(3-pyridinylcarbonyl)-2,3,4,5-tetrahydro-1H-[1,4]benzodiazepine-3-carboxylic acid, Hydroxyamide] | 20.4 | 0.6 | 0.4 | 77.7

Second part, the compound after the results:

IC50 (MMP-1) [nM] | IC50 (MMP-9) [nM] | IC50 (MMP-13) [nM] | IC50 (TACE) [nM] | SMILES
157 | 6.1 | 3.4 | 384 | COc1ccc(S(=O)(=O)N2Cc3ccc(Cl)cc3N(C(=O)c3ccccc3N3CCOCC3)CC2C(=O)NO)cc1 (centres unmarked) [Example 64, 4-(4-Methoxybenzenesulfonyl)-1-[2-(4-morpholino)phenylcarbonyl}-8-chloro-2,3,4,5-tetrahydro-1H-[1,4]benzodiazepine-3-carboxylic acid, Hydroxyamide]
41.3 | 2.4 | 1.3 | 136 | COc1ccc(S(=O)(=O)N2Cc3ccccc3N(C(=O)c3ccc(OC)cc3OC)CC2C(=O)NO)cc1 (centres unmarked) [Example 71, 1-(2,4-Dimethoxybenzoyl)-4-(4-methoxybenzenesulfonyl)-2,3,4,5-tetrahydro-1H-[1,4]benzodiazepine-3-carboxylic acid, Hydroxyamide]
239 | 1.3 | 0.4 | 1250 ± 69 | COc1ccc(S(=O)(=O)N2Cc3ccc(Cl)cc3N(C(=O)c3ccc(OC(F)(F)F)cc3)CC2C(=O)NO)cc1 (centres unmarked) [Example 61, 4-(4-Methoxybenzenesulfonyl)-1-[4-(trifluoromethoxy)benzoyl]-8-chloro-2,3,4,5-tetrahydro-1H-[1,4]benzodiazepine-3-carboxylic acid, Hydroxyamide]
23.5 | 1.5 | 1.5 | 157 | CCOc1ccc(C(=O)N2CC(C(=O)NO)N(S(=O)(=O)c3ccc(OC)cc3)Cc3ccccc32)cc1 (centres unmarked) [Example 65, 1-(4-Ethoxybenzoyl)-4-(4-methoxybenzenesulfonyl)-2,3,4,5-tetrahydro-1H-[1,4]benzodiazepine-3-carboxylic acid, Hydroxyamide]
22.7 | 1.4 | 1.3 | 143 | COc1ccc(S(=O)(=O)N2Cc3cc(C)ccc3N(C(=O)c3ccccc3)CC2C(=O)NO)cc1 (centres unmarked) [Example 60, 1-Benzoyl-4-(4-methoxybenzenesulfonyl)-7-methyl-2,3,4,5-tetrahydro-1H[1,4]benzodianzepine-3-carboxylic acid, Hydroxyamide]
4980 | 187 | 317 | 808 | COc1ccc(S(=O)(=O)N2Cc3ccccc3N(C(=O)CN3CCN(C)CC3)CC2C(=O)NO)cc1 (centres unmarked) [Example 72, 4-(4-Methoxybenzenesulfonyl)-1-[2-(4-methylpiperazin-1-yl)acetyl]-2,3,4,5-tetrahydro-1H-[1,4]benzodiazepine-3-carboxylic acid, Hydroxyamide]

— patent US6071903A, “2,3,4,5-tetrahydro-1H-[1,4]-benzodiazepine-3-hydroxyamic acids” (American Cyanamid Company, priority 1999, dated 2000)
